# According to the supplement of paper PMC10307832:
# Tests used:
# Assay in all cases: relative viability (nuclei count vs DMSO), 5 days (fraction); higher = more cells survive
# A549 = test system: A549
# In short: (§1)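 Lung cancer cell lines were pin-tool dosed in 1536-well plates on the day after seeding, with either a lone drug or a fixed anchor-drug dose plus five library-drug doses (not always all listed) in √10 steps. Nuclei were counted on 4× images after 5 days. Relative viability is the ratio of treated-well to vehicle-well nuclei counts, with each value a median of duplicate plates.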
# NCI-H1299 = test system: NCI-H1299
# In short: as §1
# NCI-H1651 = test system: NCI-H1651
# In short: as §1
# EBC-1 = test system: EBC-1
# In short: as §1
# SK-MES-1 = test system: SK-MES-1
# In short: as §1
# NCI-H1703 = test system: NCI-H1703
# In short: as §1
# IA-LM = test system: IA-LM
# In short: as §1
# Calu-6 = test system: Calu-6
# In short: as §1
compound,measurement,setting,value
O=C(O)c1ccc(-c2c[nH]c3ncc(-c4ccccc4)cc23)cc1C1CCCC1 + Cc1nc(NC(=O)N2CCC[C@H]2C(N)=O)sc1-c1ccnc(C(C)(C)C(F)(F)F)c1 [Alpelisib] (partner 2 µM),relative viability,A549; first compound 0.04 µM,0.728
same,relative viability,A549; first compound 0.1265 µM,0.787
same,relative viability,A549; first compound 0.4 µM,0.869
same,relative viability,A549; first compound 1.265 µM,0.499
same,relative viability,NCI-H1299; first compound 0.04 µM,1
same,relative viability,NCI-H1299; first compound 0.1265 µM,1.09
same,relative viability,NCI-H1299; first compound 0.4 µM,1.05
same,relative viability,NCI-H1299; first compound 1.265 µM,0.957
same,relative viability,NCI-H1651; first compound 0.04 µM,0.977
same,relative viability,NCI-H1651; first compound 0.1265 µM,1.02
same,relative viability,NCI-H1651; first compound 0.4 µM,0.613
same,relative viability,NCI-H1651; first compound 1.265 µM,0.713
same,relative viability,EBC-1; first compound 0.04 µM,0.848
same,relative viability,EBC-1; first compound 0.1265 µM,0.719
same,relative viability,EBC-1; first compound 0.4 µM,0.939
same,relative viability,EBC-1; first compound 1.265 µM,0.48
same,relative viability,SK-MES-1; first compound 0.04 µM,0.83
same,relative viability,SK-MES-1; first compound 0.1265 µM,1.01
same,relative viability,SK-MES-1; first compound 0.4 µM,0.834
same,relative viability,SK-MES-1; first compound 1.265 µM,0.803
same,relative viability,NCI-H1703; first compound 0.1265 µM,0.405
same,relative viability,NCI-H1703; first compound 0.4 µM,0.395
same,relative viability,NCI-H1703; first compound 1.265 µM,0.332
same,relative viability,IA-LM; first compound 0.04 µM,0.77
same,relative viability,IA-LM; first compound 0.1265 µM,0.913
same,relative viability,IA-LM; first compound 0.4 µM,0.713
same,relative viability,IA-LM; first compound 1.265 µM,0.737
same,relative viability,Calu-6; first compound 0.04 µM,1.04
same,relative viability,Calu-6; first compound 0.1265 µM,0.978
same,relative viability,Calu-6; first compound 0.4 µM,0.825
same,relative viability,Calu-6; first compound 1.265 µM,0.682
O=C(O)c1ccc(-c2c[nH]c3ncc(-c4ccccc4)cc23)cc1C1CCCC1 + C[C@]1(O)C[C@@H](c2nc(-c3ccc4ccc(-c5ccccc5)nc4c3)c3c(N)nccn32)C1 [Linsitinib] (partner 1 µM),relative viability,A549; first compound 0.04 µM,0.622
same,relative viability,A549; first compound 0.1265 µM,0.719
same,relative viability,A549; first compound 0.4 µM,0.717
same,relative viability,A549; first compound 1.265 µM,0.505
same,relative viability,NCI-H1299; first compound 0.04 µM,0.933
same,relative viability,NCI-H1299; first compound 0.1265 µM,1.02
same,relative viability,NCI-H1299; first compound 0.4 µM,1.04
same,relative viability,NCI-H1299; first compound 1.265 µM,0.918
same,relative viability,NCI-H1651; first compound 0.04 µM,0.997
same,relative viability,NCI-H1651; first compound 0.1265 µM,0.968
same,relative viability,NCI-H1651; first compound 0.4 µM,0.912
same,relative viability,NCI-H1651; first compound 1.265 µM,0.781
same,relative viability,EBC-1; first compound 0.04 µM,0.862
same,relative viability,EBC-1; first compound 0.1265 µM,0.903
same,relative viability,EBC-1; first compound 0.4 µM,0.956
same,relative viability,EBC-1; first compound 1.265 µM,0.697
same,relative viability,SK-MES-1; first compound 0.04 µM,1.18
same,relative viability,SK-MES-1; first compound 0.1265 µM,1.09
same,relative viability,SK-MES-1; first compound 0.4 µM,0.997
same,relative viability,SK-MES-1; first compound 1.265 µM,0.749
same,relative viability,NCI-H1703; first compound 0.04 µM,0.647
same,relative viability,NCI-H1703; first compound 0.1265 µM,1.06
same,relative viability,NCI-H1703; first compound 0.4 µM,1.06
same,relative viability,NCI-H1703; first compound 1.265 µM,0.898
same,relative viability,IA-LM; first compound 0.04 µM,0.558
same,relative viability,IA-LM; first compound 0.1265 µM,0.685
same,relative viability,IA-LM; first compound 0.4 µM,0.712
same,relative viability,IA-LM; first compound 1.265 µM,0.513
same,relative viability,Calu-6; first compound 0.04 µM,0.86
same,relative viability,Calu-6; first compound 0.1265 µM,1.17
same,relative viability,Calu-6; first compound 0.4 µM,0.892
same,relative viability,Calu-6; first compound 1.265 µM,0.781
CC1(C)CCC(c2ccc(Cl)cc2)=C(CN2CCN(c3ccc(C(=O)NS(=O)(=O)c4ccc(N[C@H](CCN5CCOCC5)CSc5ccccc5)c(S(=O)(=O)C(F)(F)F)c4)cc3)CC2)C1 [Navitoclax] + C[C@]1(O)C[C@@H](c2nc(-c3ccc4ccc(-c5ccccc5)nc4c3)c3c(N)nccn32)C1 [Linsitinib] (partner 1 µM),relative viability,A549; first compound 0.005 µM,0.681
same,relative viability,A549; first compound 0.01581 µM,0.669
same,relative viability,A549; first compound 0.05 µM,0.511
same,relative viability,A549; first compound 0.1581 µM,0.558
same,relative viability,A549; first compound 0.5 µM,0.591
same,relative viability,NCI-H1299; first compound 0.005 µM,0.949
same,relative viability,NCI-H1299; first compound 0.01581 µM,1
same,relative viability,NCI-H1299; first compound 0.05 µM,0.878
same,relative viability,NCI-H1299; first compound 0.1581 µM,0.981
same,relative viability,NCI-H1299; first compound 0.5 µM,0.984
same,relative viability,NCI-H1651; first compound 0.005 µM,0.945
same,relative viability,NCI-H1651; first compound 0.01581 µM,1.25
same,relative viability,NCI-H1651; first compound 0.1581 µM,0.966
same,relative viability,NCI-H1651; first compound 0.5 µM,0.937
same,relative viability,EBC-1; first compound 0.005 µM,0.893
same,relative viability,EBC-1; first compound 0.01581 µM,1.09
same,relative viability,EBC-1; first compound 0.05 µM,0.974
same,relative viability,EBC-1; first compound 0.1581 µM,1.05
same,relative viability,EBC-1; first compound 0.5 µM,0.86
same,relative viability,SK-MES-1; first compound 0.005 µM,1.03
same,relative viability,SK-MES-1; first compound 0.01581 µM,1.19
same,relative viability,SK-MES-1; first compound 0.05 µM,1.19
same,relative viability,SK-MES-1; first compound 0.1581 µM,1.02
same,relative viability,SK-MES-1; first compound 0.5 µM,1.1
same,relative viability,NCI-H1703; first compound 0.005 µM,0.935
same,relative viability,NCI-H1703; first compound 0.01581 µM,1
same,relative viability,NCI-H1703; first compound 0.05 µM,1.19
same,relative viability,NCI-H1703; first compound 0.1581 µM,1
same,relative viability,NCI-H1703; first compound 0.5 µM,0.813
same,relative viability,IA-LM; first compound 0.005 µM,0.551
same,relative viability,IA-LM; first compound 0.01581 µM,0.793
same,relative viability,IA-LM; first compound 0.05 µM,0.537
same,relative viability,IA-LM; first compound 0.1581 µM,0.587
same,relative viability,IA-LM; first compound 0.5 µM,0.654
same,relative viability,Calu-6; first compound 0.005 µM,0.927
same,relative viability,Calu-6; first compound 0.01581 µM,0.984
same,relative viability,Calu-6; first compound 0.05 µM,0.965
same,relative viability,Calu-6; first compound 0.1581 µM,0.903
same,relative viability,Calu-6; first compound 0.5 µM,0.918
